We go through 1 compound from paper PMC11398567, “Structures of Native Doublet Microtubules from Trichomonas vaginalis Reveal Parasite-Specific Proteins as Potential Drug Targets” (Research Square, 2024).

The target of this experiment is T1, TvFAP40 (Trichomonas vaginalis, UniProt A2DSS2).
T1 construct: gene TVAG_347810; native full-length protein in doublet microtubules isolated from parasite flagella; C-terminal residue Tyr377; head domain 1-145, coiled-coil tail 149-361; ligand in head domain
T1 sequence (A2DSS2 1-377): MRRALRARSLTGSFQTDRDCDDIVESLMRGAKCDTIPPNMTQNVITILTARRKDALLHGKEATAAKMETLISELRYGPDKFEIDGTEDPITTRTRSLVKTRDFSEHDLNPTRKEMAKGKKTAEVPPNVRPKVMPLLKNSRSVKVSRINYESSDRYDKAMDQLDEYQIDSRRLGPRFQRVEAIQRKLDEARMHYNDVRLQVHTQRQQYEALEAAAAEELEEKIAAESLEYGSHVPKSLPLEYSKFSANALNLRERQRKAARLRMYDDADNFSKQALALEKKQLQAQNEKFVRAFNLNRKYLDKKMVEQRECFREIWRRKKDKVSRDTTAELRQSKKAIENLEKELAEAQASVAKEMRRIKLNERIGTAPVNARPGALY
The experiment in a line: cryo-EM structure of native doublet microtubules. The format is binding. To be noted: co-purified endogenous ligand, putatively assigned from map density; positively charged pocket of head domain; likely metal cation nearby. From the text: cryo-EM structure of native doublet microtubules on TvFAP40 | consistent with bonding to a non-planar six-membered ring.

Consider `O=P(O)(O)O[C@H]1[C@H](OP(=O)(O)O)[C@@H](OP(=O)(O)O)[C@H](OP(=O)(O)O)[C@@H](OP(=O)(O)O)[C@H]1OP(=O)(O)O` [IP6], for which the “cryo-EM structure of native doublet microtubules” value was “consistent with bonding to a non-planar six-membered ring. Together these features suggested an inositol polyphosphate”.
